Results taken from patent publication US20100056524A1, “Compound” (priority 2008, published 2010).
Counter-ions that a name gives are not always drawn. Like-named read-outs stand apart in the source and are kept apart here.

Experiments:
Type in all cases: biochemical
PLK1 (Okadaic Acid) = molecular target: T1, PLK1 (Okadaic Acid) (Homo sapiens, UniProt P53350); test: PLK1 (Okadaic Acid) protein kinase assay; details: for remaining activity at 1 µM: 1 μM compound; for remaining activity at 10 µM: 10 μM compound; for residual kinase activity PLK1 (Okadaic Acid): 1 μm compound
T1 construct: All protein kinases were of human origin and encoded full length proteins, unless indicated otherwise; made in house; host or cells: probably Sf21 insect cells treated with okadaic acid (inferred from the row name; the text says this only of Aurora B and C)
Description: (§1) All protein kinases were of human origin and encoded full length proteins, unless indicated otherwise. They were either expressed as glutathione S-transferase (GST) fusion proteins in Escherichia Coli or as hexahistidine (His6)-tagged proteins in insect Sf21 cells. GST fusion proteins were purified by affinity chromatography on glutathione-Sepharose, and His6-tagged proteins on nickel/nitriloacetate-agarose. The procedures for expressing some of the protein kinases used herein have been detailed previously.^8,9 The following sections outline the DNA vectors synthesised and the procedures used to express and purifying protein kinases that have not been reported previously.
(§2) All assays (25.5 μl) were carried out at room temperature (21° C.) and were linear with respect to time and enzyme concentration under the conditions used. Assays were performed for 30 min using Multidrop Micro reagent dispensers (Thermo Electron Corporation, Waltham, Mass. 02454, USA) in a 96-well format. The concentration of magnesium acetate in the assays was 10 mM and the [γ-33P] ATP (800 cpm/pmol) was used at 5, 20 or 50 μM as indicated, in order to be at or below the Km for ATP for each enzyme. Protein kinases assayed at 5 μM ATP were: —ERK1, ERK8, PKBα, MARK3, Aurora C. Protein kinases assayed at 20 μM ATP were: —JNK1, PDK1, CHK1, CHK2, CDK2 and Aurora B. Protein kinases assayed at 50 μM ATP were: —MNK2, IKKepsilon and TBK1.
(§3) The assays were initiated with MgATP, stopped by addition of 5 μl of 0.5 M orthophosphoric acid and spotted on to P81 filterplates using a unifilter harvester (PerkinElmer, Boston, Mass. 02118, USA). The IC50 values of inhibitors were determined after carrying out assays at 10 different concentrations of each compound.
(§4) Unless stated otherwise, enzymes were diluted in 50 mM Tris/HCl pH 7.5, 0.1 mM EGTA, 1 mg/ml BSA, 0.1% (v/v) 2-mercaptoethanol and assayed in 50 mM Tris/HCl pH 7.5, 0.1 mM EGTA, 0.1% (v/v) 2-mercaptoethanol.

IKKe = molecular target: T2, IKKe (Homo sapiens, UniProt Q14164); test: IKKe protein kinase assay; details: for remaining activity at 1 µM: 1 μM compound; for remaining activity at 10 µM: 10 μM compound; for residual kinase activity IKKe: 1 μm compound
T2 construct: All protein kinases were of human origin and encoded full length proteins, unless indicated otherwise; His6; made in house; host or cells: insect Sf21 cells
T2 sequence (Q14164 1-716): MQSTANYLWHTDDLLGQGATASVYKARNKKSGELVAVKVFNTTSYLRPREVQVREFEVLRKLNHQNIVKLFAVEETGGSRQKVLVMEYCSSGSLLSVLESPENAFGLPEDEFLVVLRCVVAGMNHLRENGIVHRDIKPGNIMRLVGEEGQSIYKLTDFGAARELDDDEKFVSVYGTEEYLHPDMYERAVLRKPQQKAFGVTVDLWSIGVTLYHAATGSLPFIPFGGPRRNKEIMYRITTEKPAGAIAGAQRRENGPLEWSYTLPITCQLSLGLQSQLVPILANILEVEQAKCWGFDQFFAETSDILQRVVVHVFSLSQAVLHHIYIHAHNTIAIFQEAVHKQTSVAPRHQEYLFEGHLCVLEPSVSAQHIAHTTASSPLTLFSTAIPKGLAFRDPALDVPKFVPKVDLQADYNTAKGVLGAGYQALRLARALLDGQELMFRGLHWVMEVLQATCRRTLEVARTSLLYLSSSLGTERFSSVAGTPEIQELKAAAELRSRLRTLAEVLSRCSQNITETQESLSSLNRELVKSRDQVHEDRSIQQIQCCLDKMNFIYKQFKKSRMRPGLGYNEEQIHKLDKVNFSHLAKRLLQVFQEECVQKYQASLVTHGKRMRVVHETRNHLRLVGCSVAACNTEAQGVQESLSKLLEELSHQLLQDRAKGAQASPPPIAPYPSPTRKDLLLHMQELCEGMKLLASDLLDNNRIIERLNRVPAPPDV
Description: as §1
The following kinases were expressed in Sf21 cells: Aurora B and Aurora C, extra-cellular signal-regulated kinase 8 (ERK8), microtubule affinity regulating kinase 3 (MARK3), protein kinase Bα[118-480][S473D], protein kinase Bβ (PKBβ[120-481][S474D], 3-phosphoinositide-dependent protein kinase-1 [52-556]
as §2, §3, §4

MAPKAP-K2 = molecular target: T3, MAPKAP-K2 (Homo sapiens, UniProt P49137); test: MAPKAP-K2 protein kinase assay; details: for remaining activity at 1 µM: 1 μM compound; for remaining activity at 10 µM: 10 μM compound; for residual kinase activity MAPKAP-K2: 1 μm compound
T3 construct: All protein kinases were of human origin and encoded full length proteins, unless indicated otherwise; made in house
Description: as §1, §2, §3, §4

[1] = PLK1 (Okadaic Acid), read-out: residual kinase activity
[2] = IKKe, 50 μM ATP, read-out: residual kinase activity
[3] = MAPKAP-K2, read-out: residual kinase activity
[4] = read-out: residual kinase activity PLK1 (Okadaic Acid)
[5] = read-out: residual kinase activity IKKe
[6] = read-out: residual kinase activity MAPKAP-K2

T1 sequence (P53350 whole entry): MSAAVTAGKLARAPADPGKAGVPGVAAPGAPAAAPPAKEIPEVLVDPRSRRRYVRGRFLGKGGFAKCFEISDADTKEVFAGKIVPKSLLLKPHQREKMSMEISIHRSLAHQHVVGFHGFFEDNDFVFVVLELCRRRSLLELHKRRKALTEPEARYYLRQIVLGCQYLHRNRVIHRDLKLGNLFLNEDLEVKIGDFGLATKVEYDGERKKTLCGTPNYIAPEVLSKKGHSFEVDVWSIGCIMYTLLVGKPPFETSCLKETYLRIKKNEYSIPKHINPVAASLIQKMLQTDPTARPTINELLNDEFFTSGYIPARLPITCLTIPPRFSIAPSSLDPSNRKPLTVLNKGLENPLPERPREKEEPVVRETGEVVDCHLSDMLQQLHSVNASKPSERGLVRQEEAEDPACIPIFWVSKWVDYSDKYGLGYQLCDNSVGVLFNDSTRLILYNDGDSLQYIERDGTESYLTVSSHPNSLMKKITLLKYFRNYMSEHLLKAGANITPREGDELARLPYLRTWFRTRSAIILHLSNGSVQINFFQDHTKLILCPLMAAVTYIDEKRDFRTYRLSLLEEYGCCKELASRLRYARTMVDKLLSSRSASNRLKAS
T3 sequence (P49137 46-400 limits assumed): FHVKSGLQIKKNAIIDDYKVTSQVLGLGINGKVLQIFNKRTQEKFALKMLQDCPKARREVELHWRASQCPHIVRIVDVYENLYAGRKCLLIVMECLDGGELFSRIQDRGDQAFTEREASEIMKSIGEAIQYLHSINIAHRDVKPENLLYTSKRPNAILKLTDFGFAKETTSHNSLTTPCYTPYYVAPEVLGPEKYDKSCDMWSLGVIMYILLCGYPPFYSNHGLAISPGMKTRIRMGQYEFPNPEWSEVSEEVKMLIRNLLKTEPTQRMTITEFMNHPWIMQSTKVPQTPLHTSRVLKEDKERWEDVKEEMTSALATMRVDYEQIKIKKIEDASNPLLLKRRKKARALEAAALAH

Row | Compound | remaining activity at 1 µM (PLK1 (Okadaic Acid); [1]) | remaining activity at 10 µM (PLK1 (Okadaic Acid); [1]) | remaining activity at 1 µM (IKKe; [2]) | remaining activity at 10 µM (IKKe; [2]) | remaining activity at 1 µM (MAPKAP-K2; [3]) | remaining activity at 10 µM (MAPKAP-K2; [3]) | remaining activity at 10 µM (PLK1 (Okadaic Acid); [4]) | residual kinase activity PLK1 (Okadaic Acid) (PLK1 (Okadaic Acid)) | remaining activity at 10 µM (IKKe; [5]) | residual kinase activity IKKe (IKKe) | remaining activity at 10 µM (MAPKAP-K2; [6]) | residual kinase activity MAPKAP-K2 (MAPKAP-K2)
1 | O=C(NCCCNc1nc(Nc2cccc(N3CCCC3=O)c2)ncc1C1CC1)c1cccs1 [Example 47, Thiophene-2-carboxylic acid (3-{5-cyclopropyl-2-[3-(2-oxo-pyrrolidin-1-yl)-phenylamino]-pyrimidin-4-ylamino}-propyl)-amide. Hydrochloride salt] | 90% | 64% | 14% | 6% | 75% | 95% | – | – | – | – | – | –
2 | O=C(NCCCNc1nc(Nc2cccnc2)ncc1C1CC1)c1cccs1 [Example 50, Thiophene-2-carboxylic acid {3-[5-cyclopropyl-2-(pyridin-3-ylamino)-pyrimidin-4-ylamino]-propyl}-amide] | 82% | 60% | 28% | 7% | 88% | 85% | – | – | – | – | – | –
3 | O=C(NCCCNc1nc(Nc2cccc(F)c2)ncc1Br)C1CCC1 [Compound A, cyclobutanecarboxylic acid {3-[5-bromo-2-(3-fluoro-phenylamino)-pyrimidin-4-ylamino]-propyl}-amide, reference compound] | – | – | – | – | – | – | 39% | 95% | 3% | 13% | 48% | 82%
4 | O=C(NCCCNc1nc(Nc2cccc(F)c2)ncc1C1CC1)C1CCC1 [Example 23, Cyclobutanecarboxylic acid {3-[5-cyclopropyl-2-(3-fluoro-phenylamino)-pyrimidin-4-ylamino]-propyl}-amide] | 66% | 46% | 15% | 5% | 77% | 86% | 46% | 66% | 5% | 15% | 86% | 77%
